The values below come from US6872574B2, “Proteomic analysis” (The Scripps Research Institute, priority 2000, dated 2005).

Data set [1] addresses T1, cALDH-I (Rattus norvegicus, UniProt P51647).
T1 construct: made in house; host or cells: E. coli BL-21
T1 sequence (P51647 1-501): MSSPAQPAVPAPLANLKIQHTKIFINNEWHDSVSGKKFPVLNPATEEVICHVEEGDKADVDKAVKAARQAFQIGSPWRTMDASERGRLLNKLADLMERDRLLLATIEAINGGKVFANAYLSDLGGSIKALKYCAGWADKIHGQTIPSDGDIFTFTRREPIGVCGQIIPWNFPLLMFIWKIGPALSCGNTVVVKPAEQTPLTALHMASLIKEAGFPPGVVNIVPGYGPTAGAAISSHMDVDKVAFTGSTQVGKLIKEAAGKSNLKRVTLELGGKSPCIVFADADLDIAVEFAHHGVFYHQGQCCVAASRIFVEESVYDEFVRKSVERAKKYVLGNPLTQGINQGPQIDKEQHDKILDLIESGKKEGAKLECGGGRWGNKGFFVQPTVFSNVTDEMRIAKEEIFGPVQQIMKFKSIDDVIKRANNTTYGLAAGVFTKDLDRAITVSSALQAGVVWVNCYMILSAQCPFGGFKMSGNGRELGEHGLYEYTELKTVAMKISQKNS
The class given is binding.

Data set [2] has as its system rat testis proteome. The class given is binding.
The target in data set [3] is T1, cALDH-I. Description: cALDH-I enzyme assay and inhibition studies. The class given is biochemical. The method, then: (§1) cALDH-I activity was determined at 25° C. in Tris buffer (20 mM Tris-HCl, pH 8, 100 mM NaCl). Purified cALDH-I (0.2 μM) was preincubated with 15 (2.5 μM-15 μM) in DMSO (30 μL, 3% total incubation vol) in a volume of 950 μL for 5 to 45 min. After preincubation of the enzyme with inhibitor, remaining catalytic activity was measured by adding NAD^+ (500 μM final concentration) and propionaldehyde (1 mM final concentration) in 50 μL of buffer. Production of NADH from the oxidation of propionaldehyde was monitored by measuring the change in absorbance at 340 nm for 2 min. In substrate competition assays, purified cALDH-I (0.2 μM) was preincubated with either NAD^+ (50 μM) or propionaldehyde (25 μM) and 10 μM of 15 for 10 minutes at 25° C. in a volume of 950 μL. Remaining catalytic activity was monitored as described above.

For data set [4] the following is noted: pH 8.
Data set [5] has as its system trypsin. The class given is binding.
Data set [6] has as its system serine hydrolases. The class given is binding, rat.
Substrate in data set [7]: CCC=O
Description: cALDH-I enzyme assay and inhibition studies. Format: biochemical, rat. As to conditions: other: His-tagged recombinant cALDH-I; pH 8.0; 25.0 °C. As to the method: as §1

In the case of `O=C(CCCCCCCCCOS(=O)(=O)c1ccccn1)NCCCCCNC(=O)CCCC[C@@H]1SC[C@@H]2NC(=O)N[C@@H]21` [Sulfonate 1, 10-((2-Pyridylsulfonyl)oxo)-N-biotinamidopentyldecanamide], in data set [1], the “labeling of 55-kDa protein in cALDH-I-transfected cells” value is recorded as “labeled strongly”.

With `O=C(CCCCCCCCCOS(=O)(=O)c1cccs1)NCCCCCNC(=O)CCCCC1SCC2NC(=O)NC21` (stereo not drawn) [Sulfonate 11], the “specific (heat-sensitive) proteome reactivity” value in data set [2] is recorded as “reacted specifically with a 55 kDa protein, as well as two additional proteins”.

As to `O=C(CCCCCCCCCOS(=O)(=O)c1ccc([N+](=O)[O-])cc1)NCCCCCNC(=O)CCCCC1SCC2NC(=O)NC21` (stereo not drawn) [Sulfonate 8, 10-((4-Nitrobenzenesulfonyl)oxo)-N-biotinamidopentyldecanamide], the “specific (heat-sensitive) proteome reactivity” value in data set [2] is listed as “reacted specifically with a 55 kDa protein, as well as two additional proteins”.

Take `COc1ccc(S(=O)(=O)OCCCCCCCCCC(=O)NCCCCCNC(=O)CCCCC2SCC3NC(=O)NC32)cc1` (stereo not drawn) [Sulfonate 4, 10-((4-Methoxybenzenesulfonyl)oxo)-N-biotinamidopentyldecanamide]: the “nonspecific (heat-insensitive) proteome reactivity” value in data set [2] is listed as “significant additional reactivity with the preheated proteome”.

As to `CCCCCCCCS(=O)(=O)OCCCCCCCCCC(=O)NCCCCCNC(=O)CCCC[C@@H]1SC[C@@H]2NC(=O)N[C@@H]21` [Sulfonate 7, 10-((Octylsulfonyl)oxo)-N-biotinamidopentyldecanamide], the “specific (heat-sensitive) proteome reactivity” value in data set [2] is listed as “All sulfonates except the octylsulfonate 7 labeled at least one member of the testis proteome in a heat-sensitive manner”.

Consider `O=C(CCCCCCCCCOS(=O)(=O)c1cccc2cccnc12)NCCCCCNC(=O)CCCCC1SCC2NC(=O)NC21` (stereo not drawn) [Sulfonate 9, 10-((8-Quinolinesulfonyl)oxo)-N-biotinamidopentyldecanamide], for which the “specific (heat-sensitive) proteome reactivity” value in data set [2] is on record as “reacted specifically with a 55 kDa protein, as well as two additional proteins”.

With `CS(=O)(=O)OCCCCCCCCCC(=O)NCCCCCNC(=O)CCCCC1SCC2NC(=O)NC21` (stereo not drawn) [Sulfonate 5, 10-((Methylsulfonyl)oxo)-N-biotinamidopentyldecanamide], in data set [2], the “nonspecific (heat-insensitive) proteome reactivity” value was “significant additional reactivity with the preheated proteome”.

Take `CCCCCCCCOS(=O)(=O)c1ccccn1` [Sulfonate 15, 1-(2-Pyridylsulfonyl)oxo-octane]: in data set [3], the “average Kobs/[I]” value is “(9.7+1.8)×10^3 M^−1min^−1”. Further, in data set [4], the “stability to assay conditions” value is recorded as “stable to the assay conditions employed”.

B1: STI: Kunitz-type serine protease inhibitor, soybean trypsin inhibitor (protein, UniProt P01070 25-205, looked up)
Trypsin inhibitor A: DFVLDNEGNPLENGGTYYILSDITAFGGIRAAPTGNERCPLTVVQSRNELDKGIGTIISSPYRIRFIAEGHPLSLKFDSFAVIMLCVGIPTEWSVVEDLPEGPAVKIGENKDAMDGWFRLERVSDDEFNNYKLVFCPQQAEDDKCGDIGISIDHDDGTRRLVVSKNKPLVVQFQKLDKESL
As for B1, the “FP-biotin labeling of trypsin preincubated with STI” value in data set [5] is reported as “did not label”. In addition, the “FP-biotin labeling intensities in STI-treated sample” value in data set [6] is “several, but not all FP-biotin reactive proteins showed significantly lower labeling intensities”.

B2: cALDH-I (Rattus norvegicus) (protein)
chain: T1 sequence (P51647 1-501)
notes: made in house; host or cells: E. coli BL-21
As for B2, the Km in data set [7] came to 4.2 µM.
